# Settings: for solubility: 20 °C
SMILES,logP,solubility [µM]
Cc1cccc(O)c1[N+](=O)[O-],2.29,
CCC(C)c1ccc(O)c([N+](=O)[O-])c1 (stereo not given),3.84,144
Cc1cc(O)ccc1[N+](=O)[O-],2.48,7760
COc1ccc(O)c([N+](=O)[O-])c1,2.02,1450
O=[N+]([O-])c1cc(C(F)(F)F)ccc1O,2.34,
Cc1cc(O)c([N+](=O)[O-])cc1Cl,2.93,40.7
Cc1ccc([N+](=O)[O-])c(O)c1,2.31,1780
O=[N+]([O-])c1ccc(O)cc1,,83400
O=[N+]([O-])c1ccc(F)cc1O,1.91,
O=Cc1ccc(O)c([N+](=O)[O-])c1,1.48,1120
O=[N+]([O-])c1cc(-c2ccccc2)ccc1O,3.71,38.9
O=[N+]([O-])c1cc(Cl)ccc1O,2.46,812

# Reference: the OPERA property sets (Mansouri et al. 2018)
